Test results published in ChEMBL document CHEMBL5143649, “Broad-spectrum cyclic boronate β-lactamase inhibitors featuring an intramolecular prodrug for oral bioavailability” (Bioorg Med Chem, 2022).

Tests used:
Enterobacter cloacae = assay: Potentiation of aztreonam-induced antibacterial activity against Enterobacter cloacae 1002 producing AmpC assessed as concentration required to reduce aztreonam MIC to 4 ug/ml by CLSI based broth microdilution method; format: functional
Escherichia coli [1] = assay: Potentiation of aztreonam-induced antibacterial activity against Escherichia coli 302 producing TEM-10 assessed as concentration required to reduce aztreonam MIC to 4 ug/ml by CLSI based broth microdilution method; format: functional
Klebsiella pneumoniae [2] = assay: Potentiation of aztreonam-induced antibacterial activity against Klebsiella pneumoniae 1009 producing class A CTX-M-14 assessed as concentration required to reduce aztreonam MIC to 4 ug/ml by CLSI based broth microdilution method; format: functional
Klebsiella pneumoniae [3] = assay: Potentiation of aztreonam-induced antibacterial activity against Klebsiella pneumoniae 1004 producing KPC assessed as concentration required to reduce aztreonam MIC to 4 ug/ml by CLSI based broth microdilution method; format: functional
Escherichia coli [4] = assay: Potentiation of aztreonam-induced antibacterial activity against Escherichia coli 1010 producing CMY-6 assessed as concentration required to reduce aztreonam MIC to 4 ug/ml by CLSI based broth microdilution method; format: functional
Escherichia coli [5] = assay: Potentiation of aztreonam-induced antibacterial activity against Escherichia coli 308 producing SHV-5 assessed as concentration required to reduce aztreonam MIC to 4 ug/ml by CLSI based broth microdilution method; format: functional
[6] = Oral bioavailability in rat; format: ADME, organism-based; details: in vivo
[7] = Oral bioavailability in rat at 30 mg/kg measured upto 24 hrs by HPLC-MS analysis; format: ADME, organism-based; details: in vivo
[8] = AUC in rat at 100 mg/kg administered as iv infusion for 0.5 hrs and measured upto 24 hrs by HPLC-MS analysis; format: ADME, organism-based; set-up: dose 100 mg/kg, time < 24.5 hrs, route iv; details: in vivo
[9] = AUC in rat at 30 mg/kg, po measured upto 24 hrs by HPLC-MS analysis; format: ADME, organism-based; set-up: dose 30 mg/kg, time < 24 hrs, route po; details: in vivo
[10] = AUC in rat at 30 mg/kg administered as iv infusion for 0.5 hrs and measured upto 24 hrs by HPLC-MS analysis; format: ADME, organism-based; set-up: time < 24.5 hrs, dose 30 mg/kg, route iv; details: in vivo
[11] = AUC in rat at 300 mg/kg administered as iv infusion for 0.5 hrs and measured upto 24 hrs by HPLC-MS analysis; format: ADME, organism-based; set-up: time < 24.5 hrs, dose 300 mg/kg, route iv; details: in vivo
[12] = AUC in rat at 300 mg/kg, po measured upto 24 hrs by HPLC-MS analysis; format: ADME, organism-based; set-up: dose 300 mg/kg, time < 24 hrs, route po; details: in vivo
[13] = Oral bioavailability in rat at 300 mg/kg measured upto 24 hrs by HPLC-MS analysis; format: ADME, organism-based; details: in vivo
[14] = Oral bioavailability in rat at 100 mg/kg measured upto 24 hrs by HPLC-MS analysis; format: ADME, organism-based; details: in vivo
[15] = AUC in rat at 100 mg/kg, po measured upto 24 hrs by HPLC-MS analysis; format: ADME, organism-based; set-up: time < 24 hrs, dose 100 mg/kg, route po; details: in vivo
Klebsiella pneumoniae [16] = assay: microbe, parasite or virus in culture; details: 1004
Escherichia coli [17] = assay: microbe, parasite or virus in culture; details: 1010
Escherichia coli [18] = assay: microbe, parasite or virus in culture; details: 308
Klebsiella pneumoniae [19] = assay: microbe, parasite or virus in culture; details: 1009
Escherichia coli [20] = assay: microbe, parasite or virus in culture; details: 302

SMILES	EC (Enterobacter cloacae) [µg/mL]	EC (Escherichia coli [1]) [µg/mL]	EC (Klebsiella pneumoniae [2]) [µg/mL]	EC (Klebsiella pneumoniae [3]) [µg/mL]	EC (Escherichia coli [4]) [µg/mL]	EC (Escherichia coli [5]) [µg/mL]	also measured
O=C(O)C[C@H]1C=CC[C@H](NC(=O)Cc2cccs2)B(O)O1	2.5	5	5	10	10	1.25	
O=C(O)CC1C=CC[C@H](NC(=O)Cc2cccs2)B(O)O1 (stereo partly drawn)	10	10	10	20	20	2.5	
O=C(Cc1cccs1)N[C@H]1CC=C[C@@H]2CC(=O)OB1O2							bioavailability [6]: 48%
Nc1nnc(SCC(=O)N[C@H]2CC=C[C@H](CC(=O)O)OB2O)s1	0.6	5	2.5	5	1.25	1.25	
COC(=O)N1CC(CC(=O)O)OB(O)[C@@H](NC(=O)Cc2cccs2)C1 (stereo partly drawn)		20	10	40	20	2.5	
O=C(O)CC1CCC[C@H](NC(=O)Cc2cccs2)B(O)O1 (stereo partly drawn)	10	>40	10	20	10	10	
O=C(O)C[C@@H]1C=CC[C@H](NC(=O)Cc2cccs2)B(O)O1	10	>40	20	40	40	10	
CSCC(=O)N[C@H]1CC=C[C@H](CC(=O)O)OB1O	1.25	5	2.5	10	5	1.25	
CC(=O)N1CC(CC(=O)O)OB(O)[C@@H](NC(=O)Cc2cccs2)C1 (stereo partly drawn)	20	20	5	40	10	1.25	
CSCC(=O)N[C@H]1CC=C[C@H](CC(=O)[O-])OB1O.[Na+]							bioavailability [7]: 9.3%; AUC at 24.5 h [8]: 79400 ng·h/mL; AUC at 24 h [9]: 2600 ng·h/mL; AUC at 24.5 h [10]: 28100 ng·h/mL; AUC at 24.5 h [11]: 276000 ng·h/mL
O=C(O)C[C@H]1C=CC[C@H](NC(=O)c2cccnc2)B(O)O1	1.25	1.25	5	10	1.25	2.5	
CSCC(=O)N[C@H]1CC=C[C@@H]2CC(=O)OB1O2							bioavailability [7]: 52%; AUC at 24 h [12]: 179000 ng·h/mL; AUC at 24 h [9]: 14600 ng·h/mL; bioavailability [13]: 64.9%; bioavailability [14]: 69.3%; AUC at 24 h [15]: 55000 ng·h/mL
O=C(O)CC1COC[C@H](NC(=O)Cc2cccs2)B(O)O1 (stereo partly drawn)	10	20	5	40	10	5	
C[C@H]1[C@H](NC(=O)/C(=N\OC(C)(C)C(=O)O)c2csc(N)n2)C(=O)N1S(=O)(=O)O [AZTREONAM]							MIC (Klebsiella pneumoniae [16]): > 64 µg/mL; MIC (Escherichia coli [17]): > 64 µg/mL; MIC (Escherichia coli [18]): > 64 µg/mL; MIC (Klebsiella pneumoniae [19]): > 64 µg/mL; MIC (Escherichia coli [20]): > 64 µg/mL
O=C(O)C[C@@H]1CC[C@H](NC(=O)Cc2cccs2)B(O)O1 [VABORBACTAM]	20	>40	>40	1.25	20	>40	bioavailability [6]: < 10%
